Results: publication PMC5908295 (Oncotarget, 2018)

What was measured:
[1] = test system: MV-4-11 tumors (FLT3-ITD+); experiment: MV-4-11 subcutaneous xenograft, single agent; type: in vivo, SCID/beige mice; details: PO
Text: All animals were handled in strict accordance with good animal practice as defined by the relevant national and local animal welfare bodies. SCID and SCID/beige C.B-17 mice were provided by Harlan Laboratories or Charles River Laboratories, and were maintained in pathogen free conditions. For the xenograft experiments, age-matched (9-11 weeks old) females were used. 5×10^6 of MV-4-11 or MOLM-16 cells were suspended in a mixture (1:1, v:v) of PBS with Matrigel (BD Biosciences,) and injected subcutaneously (sc), in a total volume of 100 μL, above the groin on the right hind limb. For MOLM-13 and KG-1 cells, a mixture (3:1, v:v) of PBS and Matrigel HC (BD Bioscience,) was used to inject 5 × 10^6 of cell per mouse subcutaneously (sc), in a total volume of 100 μL. When tumors reached 100-130 mm^3, mice were randomized into uniform groups (6-9 mice per group) and subsequently administered the compound. […] At the end of the experiment, mice were anesthetized with isofluran and blood samples for total cell counts and biochemistry were obtained by retro-orbital bleeding. […] 5×10^6 cells suspended in a mixture (3:1, v:v) of PBS and Matrigel were injected as described above. When the tumor volume reached ~120 mm^3, mice were randomized into uniform groups (5 mice per group) and the compound then administered. […] Tumor volume was monitored every second day and calculated using the formula: TV = (a^2×b)/2, where “a” is the short axis in millimeters, and “b” is the long axis in millimeters. Body weight was assessed every day.

[2] = Pharmacokinetics after oral and intravenous administration; type: in vivo, mice (CD-1); details: female, CD-1, plasma, Mouse, Dose PO/IV 50/15 mg/kg
Method: therapeutic potential in acute myeloid leukemia
sheet for further calculations.
Three male Beagle dogs were administered

[3] = test system: Phospho-S6 in MOLM-16 tumors; experiment: PK/PD: phospho-S6 in MOLM-16 tumors after dosing; type: in vivo, SCID/beige mice; details: 25 mg/kg BID for 3 days
Method: At the end of the experiment, mice were sacrificed 4, 8 and 24h after the last dose (three mice per time point). Plasma and tumor samples were collected and stored at −80°C for further analysis.

[4] = test system: MOLM-16 (FLT3-WT) cells; experiment: Western blot of FLT3/PIM downstream signaling; type: cell-based; details: MOLM-16, 4 hours
Method: (§1) Thereafter, we assessed the activities of FLT3-ITD – induced key pro-survival signaling pathways; STAT5, RAF/MEK/ERK and PI3K/AKT (Figure 3). […] Since the expression of a major anti-apoptotic BCL2 family member, MCL1, is regulated by translation, and PIM kinases regulate protein synthesis through 4EBP1, we also assessed the abundance of MCL1.
(§2) Cells were collected, washed twice with cold PBS, and lysed in RIPA buffer and kept on ice for 10 min. Tumor specimens from xenograft studies were homogenized in RIPA buffer using OMNI TH Tissue Homogenizer and kept on ice for 30 min. After incubation, cell and tumor lysates were centrifuged at 13,000×g at 4°C for 10 min and the supernatants were stored at −80°C until use. Protein concentration was measured using the Bradford method. For SDS-PAGE, 50 μg of protein in the Laemmli sample buffer was loaded onto 10% polyacrylamide gels and electrophoresed. Thereafter, proteins were transferred onto polyvinylidene fluoride (PVDF) membranes (Millipore). After blocking with 5% non-fat dry milk/TBS-T or 2% BSA/TBS-T, membranes were incubated with specific primary antibodies (listed in Supplementary Table 2) at 4 °C overnight. After extensive washing in PBS-T, membranes were incubated for 60 min with appropriate secondary peroxidase-conjugated IgG. The immunoreactive proteins were detected using an enhanced chemiluminescence (ECL) substrate (GE Healthcare) and visualized with Hyperfilm-ECL (GE Healthcare Biosciences).

[5] = test system: MV-4-11 (FLT3-ITD+) cells; experiment: Western blot of FLT3/PIM downstream signaling; type: cell-based; details: MV-4-11, 4 hours
Method: as §1, §2

[6] = test system: MOLM-14; experiment: MTS viability assay, 72 h; details: Homo sapiens, MOLM-14, 72 h
Method: 15-25 ×10^3 of MV-4-11, MOLM-13, MOLM-14, MOLM-16, KG-1, Eol-1, SKM-1, PL-21, GDM-1, SKNO-1, RS4;11, Kasumi-3 and Kasumi-6 cells were seeded in 150 μL of culture medium onto individual wells in a 96 well plates, in triplicates. On the same day, 50 μL of medium containing tested inhibitor was added to the wells. Each compound was tested at 8 concentrations, in triplicates. As a negative control, the medium containing 0.1% DMSO was used. […] Staurosporine was used at 10 μM as a positive control. One the day of drug addition, basal signal from untreated cells was measured from in triplicate to determine time zero (T0). […] GI50 and LC50 values were extrapolated from a variable (four-parameter) dose-response curve fitted in GraphPad Prism.

[7] = test system: MV-4-11; experiment: MTS viability assay, 72 h; details: Homo sapiens, MV4-11, 72 h
Method: (§3) On the same day, 50 μL of medium containing tested inhibitor was added to the wells. Each compound was tested at 8 concentrations, in triplicates. As a negative control, the medium containing 0.1% DMSO was used. […] Staurosporine was used at 10 μM as a positive control. One the day of drug addition, basal signal from untreated cells was measured from in triplicate to determine time zero (T0). […] GI50 and LC50 values were extrapolated from a variable (four-parameter) dose-response curve fitted in GraphPad Prism.

[8] = test system: SIG-M5; experiment: MTS viability assay, 72 h; details: Homo sapiens, SIG-M5, 72 h
Method: as §3

[9] = test system: OCI-AML-2; experiment: MTS viability assay, 72 h; details: Homo sapiens, OCI-AML2, 72 h
Method: as §3

[10] = Metabolic stability, liver microsomes; type: in vitro ADME; details: Rat, 37 °C, read-out: Liver microsomes t1/2 (converted)
[11] = test system: MV-4-11; experiment: Drug interactions (combination index), MTS; type: cell-based; details: MV-4-11, broad range of concentrations
Method: and AC220 in AML cell lines was assessed using an MTS assay. Cells viability was measured after 72 h incubation with three-fold serial dilutions of compounds, starting at 10 µM concentration. Obtained data were presented as percentage of viable cells compared with control (untreated) cells viability. Error bars indicate SD.
11 cells. Combination index (CI) are shown on the Y axis and compound concentrations are shown on X and Z axes. Values […] and below 0.7- a synergy between tested compounds. Values above 1 indicate an antagonistic effect.
(1 picture or pasted object on this page, not shown here)

[12] = test system: MOLM-16; experiment: MTS viability assay, 72 h; details: MOLM16, 72 h
Method: as §3

[13] = Metabolic stability, liver S9 fraction; type: in vitro ADME; details: Rat, 37 °C, read-out: Liver S9 fraction t1/2 (converted)

For `CC(C)n1c(C2CCNCC2)nc2c([N+](=O)[O-])c(Br)c(Br)cc21` [SEL24-B489, 5,6-dibromo-4-nitro-2-(piperidin-4-yl)-1-(propan-2-yl)-1H-1,3-benzodiazole], the “tumor growth inhibition (TGI)” value ([1]; MV-4-11, 50 mg/kg daily) was 67%, the “tumor growth inhibition (TGI)” value ([1]; MV-4-11, 75 mg/kg daily) was 74% and the “tumor growth inhibition (TGI)” value ([1]; MV-4-11, 100 mg/kg daily) was 82%. For the same molecule, the Cmax ([2]; 50 mg/kg) was 2180 ng/mL, the Tmax ([2]; 50 mg/kg) was 4 h and the bioavailability ([2]; 50 mg/kg, read-out: F (bioavailability)) was 62%. For the same molecule, the AUC(0-t) [2] was 26200 ng·h/mL, the half-life [2] was 5.2 h and the “time after the last dose that Phospho-S6 remained suppressed” value [3] was “up to 8 hours”. For the same molecule, the “S6 (S235/236) phosphorylation” value [4] was “profound inhibition”, the MCL1 abundance [5] was “markedly decreased” and the STAT5 signaling [5] was “completely blocked”. For the same molecule, the “apoptosis indicated by PARP cleavage” value [5] was “marked induction of apoptosis”, the GI50 [6] was 97 nM and the CC50 ([6]; read-out: LC50) was greater than 10000 nM. For the same molecule, the GI50 [7] was 20 nM, the CC50 ([7]; read-out: LC50) was greater than 10000 nM and the GI50 [8] was 806 nM. For the same molecule, the CC50 ([8]; read-out: LC50) was 3440 nM, the GI50 [9] was 960 nM and the CC50 ([9]; read-out: LC50) was 2320 nM. The half-life at 1 µM [10] was 21.8 h, the “pharmacological interaction with AraC” value [11] was “marked synergy” and the “pharmacological interaction with vosaroxin” value [11] was “marked synergy”. For the same molecule, the GI50 [12] was 42 nM, the CC50 ([12]; read-out: LC50) was 153 nM and the half-life at 1 µM [13] was 4.3 h.
